{
  "source": "patent US7411083B2",
  "about": "“Substituted acetic acid derivatives” (Wyeth, priority 2003, dated 2008)",
  "data": [
    {"target": "T1, recombinant human plasminogen activator inhibitor-1 (PAI-1) (Homo sapiens, UniProt P05121)", "T1 construct": "purchased Molecular Innovations, Royal Oak, Mich", "T1 sequence (P05121 24-402)": "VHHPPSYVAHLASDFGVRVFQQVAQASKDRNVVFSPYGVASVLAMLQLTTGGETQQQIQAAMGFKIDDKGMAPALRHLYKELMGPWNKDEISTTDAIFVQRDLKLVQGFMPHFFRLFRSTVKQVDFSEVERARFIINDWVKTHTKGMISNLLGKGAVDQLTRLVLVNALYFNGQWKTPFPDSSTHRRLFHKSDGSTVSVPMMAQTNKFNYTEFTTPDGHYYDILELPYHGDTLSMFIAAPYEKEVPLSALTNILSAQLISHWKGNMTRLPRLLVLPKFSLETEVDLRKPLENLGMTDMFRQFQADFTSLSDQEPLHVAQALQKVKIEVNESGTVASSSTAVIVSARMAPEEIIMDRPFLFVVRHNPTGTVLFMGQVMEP", "assay": "Screening for PAI-1 inhibition (residual tPA activity, Spectrozyme-tPA chromogenic substrate)", "type": "biochemical", "conditions": "test compound at 100 Um; pH 6.6 buffer, 140 nM PAI-1, 70 nM tPA", "experimental": "Screening for PAI-1 inhibition. Test compounds are dissolved in DMSO at a final concentration of 10 Mm, then diluted 100× in physiologic buffer. The inhibitory assay is initiated by the addition of the test compound (1-100 μM final concentration, maximum DMSO concentration of 0.2%) in a Ph 6.6 buffer containing 140 Nm recombinant human plasminogen activator inhibitor-1 (PAI-1; Molecular Innovations, Royal Oak, Mich.). Following a 1 hour incubation at room temperature, 70 Nm of recombinant human tissue plasminogen activator (Tpa) is added, and the combination of the test compound, PAI-1 and Tpa is incubated for an additional 30 minutes. Following the second incubation, Spectrozyme-Tpa (American Diagnostica, Greenwich, Conn.), a chromogenic substrate for Tpa, is added and absorbance read at 405 nm at 0 and 60 minutes. Relative PAI-1 inhibition is equal to the residual Tpa activity in the presence of the test compounds and PAI-1. Control treatments include the complete inhibition of Tpa by PAI-1 at the molar ratio employed (2:1), and the absence of any effect of the test compound on Tpa alone.", "units": {"inhibition at 100 µM": "%"}, "values": [
      {"compound": "O=C(O)CO/N=C/c1c[nH]c2ccc(OCc3ccccc3Cl)cc12", "note": "[Compound 30, {[((1E)-{5-[(2-chlorobenzyl)oxy]-1H-indol-3-yl}methylidene)amino]oxy}acetic acid]", "inhibition at 100 µM": 11},
      {"compound": "C#CCn1cc(/C=N/OCC(=O)O)c2cc(OCc3ccc(C(F)(F)F)cc3)ccc21", "note": "[Compound 31, ({[(1E)-(1-(2-propynyl)-5-{[4-(trifluoromethyl)benzyl]oxy}-1H-indol-3-yl)methylidene]amino}oxy)acetic acid]", "inhibition at 100 µM": 90},
      {"compound": "C#CCn1cc(/C=N/OCC(=O)O)c2cc(OCc3ccc(C(C)(C)C)cc3)ccc21", "note": "[Compound 33, [({(1E)-[5-[(4-tert-butylbenzyl)oxy]-1-(2-propynyl)-1H-indol-3-yl]methylidene}amino)oxy]acetic acid]", "inhibition at 100 µM": 91},
      {"compound": "Cn1cc(/C=N/OCC(=O)O)c2cc(OCc3ccc(C(C)(C)C)cc3)ccc21", "note": "[Compound 34, {[((1E)-{5-[(4-tert-butylbenzyl)oxy]-1-methyl-1H-indol-3-yl}methylidene)amino]oxy}acetic acid]", "inhibition at 100 µM": 88},
      {"compound": "C#CCn1cc(/C=N/OCC(=O)O)c2cc(OCc3cc(C(F)(F)F)cc(C(F)(F)F)c3)ccc21", "note": "[Compound 35, [({(1E)-[5-{[3,5-bis(trifluoromethyl)benzyl]oxy}-1-(2-propynyl)-1H-indol-3-yl]methylidene}amino)oxy]acetic acid]", "inhibition at 100 µM": 44},
      {"compound": "C#CCn1cc(/C=N/OCC(=O)O)c2cc(OCc3cccc(Br)c3)ccc21", "note": "[Compound 36, [({(1E)-[5-[(3-bromobenzyl)oxy]-1-(2-propynyl)-1H-indol-3-yl]methylidene}amino)oxy]acetic acid]", "inhibition at 100 µM": 92},
      {"compound": "Cn1cc(/C=N/OCC(=O)O)c2cc(OCc3cccc(Br)c3)ccc21", "note": "[Compound 37, {[((1E)-{5-[(3-bromobenzyl)oxy]-1-methyl-1H-indol-3-yl}methylidene)amino]oxy}acetic acid]", "inhibition at 100 µM": 70},
      {"compound": "C#CCn1cc(/C=N/OCC(=O)O)c2cc(OCc3cccc(Cl)c3)ccc21", "note": "[Compound 38, [({(1E)-[5-[(3-chlorobenzyl)oxy]-1-(2-propynyl)-1H-indol-3-yl]methylidene}amino)oxy]acetic acid]", "inhibition at 100 µM": 62},
      {"compound": "Cn1cc(/C=N/OCC(=O)O)c2cc(OCc3cccc(Cl)c3)ccc21", "note": "[Compound 39, {[((1E)-{5-[(3-chlorobenzyl)oxy]-1-methyl-1H-indol-3-yl}methylidene)amino]oxy}acetic acid]", "inhibition at 100 µM": 48},
      {"compound": "C=CCn1cc(/C=N/OCC(=O)O)c2cc(OCc3ccccc3)ccc21", "note": "[Compound 40, [({(1E)-[1-allyl-5-(benzyloxy)-1H-indol-3-yl]methylidene}amino)oxy]acetic acid]", "inhibition at 100 µM": 50},
      {"compound": "O=C(O)CO/N=C/c1cn(Cc2ccccc2)c2ccc(OCc3ccccc3)cc12", "note": "[Compound 41, [({(1E)-[1-benzyl-5-(benzyloxy)-1H-indol-3-yl]methylidene}amino)oxy]acetic acid]", "inhibition at 100 µM": 96},
      {"compound": "C#CCn1cc(/C=N/OCC(=O)O)c2cc(OCc3cccc(C(F)(F)F)c3)ccc21", "note": "[Compound 42, ({[(1E)-(1-(2-propynyl)-5-{[3-(trifluoromethyl)benzyl]oxy}-1H-indol-3-yl)methylidene]amino}oxy)acetic acid]", "inhibition at 100 µM": 96},
      {"compound": "Cn1cc(/C=N/OCC(=O)O)c2cc(OCc3cccc(C(F)(F)F)c3)ccc21", "note": "[Compound 43, ({[(1E)-(1-methyl-5-{[3-(trifluoromethyl)benzyl]oxy}-1H-indol-3-yl)methylidene]amino}oxy)acetic acid]", "inhibition at 100 µM": 81},
      {"compound": "C#CCn1cc(/C=N/OCC(=O)O)c2cc(OCc3ccc(Cl)cc3)ccc21", "note": "[Compound 44, [({(1E)-[5-[(4-chlorobenzyl)oxy]-1-(2-propynyl)-1H-indol-3-yl]methylidene}amino)oxy]acetic acid]", "inhibition at 100 µM": 83},
      {"compound": "C=CCn1cc(/C=N/OCC(=O)O)c2cc(OCc3ccc(Cl)cc3)ccc21", "note": "[Compound 45, {[((1E)-{1-allyl-5-[(4-chlorobenzyl)oxy]-1H-indol-3-yl}methylidene)amino]oxy}acetic acid]", "inhibition at 100 µM": 96},
      {"compound": "O=C(O)CO/N=C/c1cn(Cc2ccccc2)c2ccc(OCc3ccc(Cl)cc3)cc12", "note": "[Compound 46, {[((1E)-{1-benzyl-5-[(4-chlorobenzyl)oxy]-1H-indol-3-yl}methylidene)amino]oxy}acetic acid]", "inhibition at 100 µM": 86},
      {"compound": "Cn1cc(/C=N/OCC(=O)O)c2cc(OCc3ccc(Cl)cc3)ccc21", "note": "[Compound 47, {[((1E)-{5-[(4-chlorobenzyl)oxy]-1-methyl-1H-indol-3-yl}methylidene)amino]oxy}acetic acid]", "inhibition at 100 µM": 31},
      {"compound": "C#CCn1cc(/C=N/OCC(=O)O)c2cc(OCc3ccccc3Cl)ccc21", "note": "[Compound 48, [({(1E)-[5-[(2-chlorobenzyl)oxy]-1-(2-propynyl)-1H-indol-3-yl]methylidene}amino)oxy]acetic acid]", "inhibition at 100 µM": 79},
      {"compound": "C=CCn1cc(/C=N/OCC(=O)O)c2cc(OCc3ccccc3Cl)ccc21", "note": "[Compound 49, {[((1E)-{1-allyl-5-[(2-chlorobenzyl)oxy]-1H-indol-3-yl}methylidene)amino]oxy}acetic acid]", "inhibition at 100 µM": 93},
      {"compound": "Cn1cc(/C=N/OCC(=O)O)c2cc(OCc3ccccc3Cl)ccc21", "note": "[Compound 50, {[((1E)-{5-[(2-chlorobenzyl)oxy]-1-methyl-1H-indol-3-yl}methylidene)amino]oxy}acetic acid]", "inhibition at 100 µM": 31},
      {"compound": "C#CCn1cc(/C=N/OCC(=O)O)c2cc(OCc3ccc(Cl)c(Cl)c3)ccc21", "note": "[Compound 51, [({(1E)-[5-[(3,4-dichlorobenzyl)oxy]-1-(2-propynyl)-1H-indol-3-yl]methylidene}amino)oxy]acetic acid]", "inhibition at 100 µM": 86},
      {"compound": "C=CCn1cc(/C=N/OCC(=O)O)c2cc(OCc3ccc(Cl)c(Cl)c3)ccc21", "note": "[Compound 52, {[((1E)-{1-allyl-5-[(3,4-dichlorobenzyl)oxy]-1H-indol-3-yl}methylidene)amino]oxy}acetic acid]", "inhibition at 100 µM": 72},
      {"compound": "O=C(O)CO/N=C/c1cn(Cc2ccccc2)c2ccc(OCc3ccc(Cl)c(Cl)c3)cc12", "note": "[Compound 53, {[((1E)-{1-benzyl-5-[(3,4-dichlorobenzyl)oxy]-1H-indol-3-yl}methylidene)amino]oxy}acetic acid]", "inhibition at 100 µM": 76},
      {"compound": "Cn1cc(/C=N/OCC(=O)O)c2cc(OCc3ccc(Cl)c(Cl)c3)ccc21", "note": "[Compound 54, {[((1E)-{5-[(3,4-dichlorobenzyl)oxy]-1-methyl-1H-indol-3-yl}methylidene)amino]oxy}acetic acid]", "inhibition at 100 µM": 91},
      {"compound": "C=CCn1cc(/C=N/OCC(=O)O)c2cc(OCc3ccc4ccccc4c3)ccc21", "note": "[Compound 55, [({(1E)-[1-allyl-5-(2-naphthylmethoxy)-1H-indol-3-yl]methylidene}amino)oxy]acetic acid]", "inhibition at 100 µM": 81},
      {"compound": "O=C(O)CO/N=C/c1cn(Cc2ccccc2)c2ccc(OCc3ccc4ccccc4c3)cc12", "note": "[Compound 56, [({(1E)-[1-benzyl-5-(2-naphthylmethoxy)-1H-indol-3-yl]methylidene}amino)oxy]acetic acid]", "inhibition at 100 µM": 62},
      {"compound": "Cn1cc(/C=N/OCC(=O)O)c2cc(OCc3ccc4ccccc4c3)ccc21", "note": "[Compound 57, [({(1E)-[1-methyl-5-(2-naphthylmethoxy)-1H-indol-3-yl]methylidene}amino)oxy]acetic acid]", "inhibition at 100 µM": 64},
      {"compound": "O=C(O)CO/N=C/c1cccc(-c2cccc(OCc3ccc(C(F)(F)F)cc3)c2)c1", "note": "[Compound 58, ({[(1E)-(3′-{[4-(trifluoromethyl)benzyl]oxy}-1,1′-biphenyl-3-yl)methylidene]amino}oxy)acetic acid]", "inhibition at 100 µM": 84},
      {"compound": "CC(C)(C)c1ccc(COc2cccc(-c3cccc(/C=N/OCC(=O)O)c3)c2)cc1", "note": "[Compound 59, {[((1E)-{3′-[(4-tert-butylbenzyl)oxy]-1,1′-biphenyl-3-yl}methylidene)amino]oxy}acetic acid]", "inhibition at 100 µM": 63},
      {"compound": "O=C(O)CO/N=C/c1cccc(-c2cccc(OCc3ccc(Br)cc3)c2)c1", "note": "[Compound 60, {[((1E)-{3′-[(4-bromobenzyl)oxy]-1,1′-biphenyl-3-yl}methylidene)amino]oxy}acetic acid]", "inhibition at 100 µM": 88},
      {"compound": "O=C(O)CO/N=C/c1cccc(-c2cccc(OCc3cc(C(F)(F)F)cc(C(F)(F)F)c3)c2)c1", "note": "[Compound 61, ({[(1E)-(3′-{[3,5-bis(trifluoromethyl)benzyl]oxy}-1,1′-biphenyl-3-yl)methylidene]amino}oxy)acetic acid]", "inhibition at 100 µM": 74},
      {"compound": "O=C(O)CO/N=C/c1cccc(-c2cccc(OCc3cccc(Br)c3)c2)c1", "note": "[Compound 62, {[((1E)-{3′-[(3-bromobenzyl)oxy]-1,1′-biphenyl-3-yl}methylidene)amino]oxy}acetic acid]", "inhibition at 100 µM": 84},
      {"compound": "O=C(O)CO/N=C/c1cccc(-c2cccc(OCc3cccc(Cl)c3)c2)c1", "note": "[Compound 63, {[((1E)-{3′-[(3-chlorobenzyl)oxy]-1,1′-biphenyl-3-yl}methylidene)amino]oxy}acetic acid]", "inhibition at 100 µM": 91},
      {"compound": "O=C(O)CO/N=C/c1cccc(-c2cccc(OCc3ccccc3)c2)c1", "note": "[Compound 64, [({(1E)-[3′-(benzyloxy)-1,1′-biphenyl-3-yl]methylidene}amino)oxy]acetic acid]", "inhibition at 100 µM": 92},
      {"compound": "O=C(O)CO/N=C/c1cccc(-c2cccc(OCc3cccc(C(F)(F)F)c3)c2)c1", "note": "[Compound 65, ({[(1E)-(3′-{[3-(trifluoromethyl)benzyl]oxy}-1,1′-biphenyl-3-yl)methylidene]amino}oxy)acetic acid]", "inhibition at 100 µM": 84}
    ]}
  ]
}
